Measurements reported in patent US10344034B2, “Pyrazolopyrimidone or Pyrrolotriazone derivatives, method of preparing same, and pharmaceutical applications thereof” (Shanghai Hengrui Pharmaceutical Co., Ltd., priority 2013, dated 2019).
Like-named read-outs stand apart in the source and are kept apart here.

What was measured:
[1] = Seven-day toxicokinetic evaluation in rats; design: species or system SD rats; conditions: rat, in vivo; for AUC(0-inf): AUC0-∞; for MRT inf: MRT0-∞
Method: Test Example 8. Seven-Day Toxicokinetic Evaluation of the Compound of Example 11 in Rats
SD rats were used as test animals. The plasma concentration at various times was determined by LC/MS/MS after administration of the compound of Example 11 (SHR147280) by oral gavage for 7 days. The compound toxicity in rodents was preliminarily assessed according to the potential toxicity reaction and severity level of the body.
Twenty-four (24) healthy adult SD rats (half female and half male) were evenly designated into 4 groups (6 for each group). The animals were purchased from Shanghai SLAC Laboratory Animal Corp. Ltd (laboratory animal production Certificate No. SCXK (HU) 2012-0002).
An appropriate amount of sample was accurately weighed, and added with some 0.5% CMC-Na to form an uniform suspension upon ultrasonicator grinding treatment, and then diluted to the final volume. The test sample solutions on day 1 and day 7 were kept for the determination of administration concentration of toxicokinetics.
Repeat oral doses were 80, 240, and 720 mg/kg, and administration concentrations were 8, 24, and 72 mg/ml respectively. The dosing volume was 10 ml/kg once daily for 7 days.
The blood was sampled on day 1 and day 7 after administration with sampling time before, and 1, 2, 4, 8 and 24 hours after oral administration on day 1, as well as before, and 1, 2, 4, 8, 24 and 48 hours after oral administration on day 7. The blood sample was collected in a heparinized test tube, and centrifuged to separate the plasma, which was stored at −20° C. The content of the test compound in the plasma of rats after administration of the compound by oral gavage was determined by LC/MS/MS.

[2] = Rabbit pharmacokinetics assay; type: in vivo, New Zealand rabbits; conditions: for AUC: read-out: Area under curve AUC; for half-life: read-out: Half-life T1/2 (converted); for MRT: read-out: Residence time MRT
Method: Test Example 5. Rabbit Pharmacokinetics Assay of Example 11 of the Present Invention
Rabbits were used as test animals. The plasma concentrations at various times were determined by LC/MS/MS after intragastric administration of the compound of Example 11, and intravenous administration of the compound of Example 11 to rabbits. The pharmacokinetic behavior of the present compound in rabbits was studied, and the pharmacokinetic features were evaluated.
Six (6) healthy New Zealand Rabbits (female) were evenly designated into 2 groups. The animals were purchased from Jie Sijie Corp. Ltd.
An appropriate amount of sample was weighed, and added with 0.5% CMC-Na to form […] suspension upon ultrasonic treatment.
Appropriate amounts of drugs were weighed, and dissolved with 1 ml DMSO and 1 ml of Tween 80. Saline solution was added to the final volume.
Six (6) healthy New Zealand rabbits (female) were evenly designated into 2 groups, and administered by oral gavage or intravenous injection (i.v.) (oral gavage at a dosage of 30 mg/kg with an administration volume of 5 ml/kg, and i.v. at a dosage of 5 mg/kg with an administration volume of 2 ml/kg) after fasting overnight.
0.2 ml of blood was sampled before and 5 minutes, 0.25, 0.5, 1, 2, 4, 8, 11, 24 hours after intravenous administration, collected in a heparinized test tube, and centrifuged at 3500 rpm for 10 minutes to separate the plasma, which was stored at −20° C. Blood was sampled before, and 0.5, 1, 2, 4, 6, 8, 11, and 24 hours after oral administration, and treated the same as that of the intravenous administration group. The content of the test compound in the plasma of rabbits after administration of the compound by oral gavage and intravenous injection was determined by LC/MS/MS.

[3] = female, New Zealand, plasma, intravenous injection 5 mg/kg
[4] = female, New Zealand, plasma, oral 30 mg/kg

**Q.** For `CONC(=O)Nc1ccc(-n2nc3c(c2CN(C)C)c(=O)n(-c2ccc(OC)nn2)c(=O)n3Cc2c(F)cccc2F)cc1` [Example 11, 1-(4-(7-(2,6-difluorobenzyl)-3-((dimethylamino)methyl)-5-(6-methoxypyridazin-3-yl)-4,6-dioxo-4,5,6,7-tetrahydro-2H-pyrazolo[3,4-d]pyrimidin-2-yl)phenyl)-3-methoxyurea], which NOAEL at 7 days ([1]; both sexes, SD, po) is on record?
**A.** 240 mg/kg

**Q.** What about the lethal dose ([1]; both, SD, po, 7 days) of the same molecule?
**A.** 720 mg/kg

**Q.** What about the CLz/F ([1]; female, SD, 80 mg/kg) of the same molecule?
**A.** 7.71 mL/min/kg

**Q.** What about the CLz/F ([1]; female, SD, 240 mg/kg) of the same molecule?
**A.** 5.82 mL/min/kg

**Q.** What about the AUC0-t ([1]; female, SD, po, 80 mg/kg) of the same molecule?
**A.** 282.074 µg·h/mL

**Q.** What about the “AUC0-∞” value ([1]; female, SD, po, 80 mg/kg) of the same molecule?
**A.** 313.468 µg·h/mL

**Q.** And the Cmax ([1]; female, SD, po, 80 mg/kg)?
**A.** 19550 ng/mL

**Q.** And the “MRT0-∞” value ([1]; female, SD, po, 80 mg/kg)?
**A.** 9.23 h

**Q.** And the Vd/F ([1]; female, SD, po, 80 mg/kg)?
**A.** 2.09 L/kg

**Q.** What about the AUC0-t ([1]; female, SD, po, 80 mg/kg, AUC0-t) of the same molecule?
**A.** 173 µg·h/mL

**Q.** And the AUC(0-inf) ([1]; female, SD, po, 80 mg/kg)?
**A.** 174 µg·h/mL

**Q.** And the Cmax ([1]; female, SD, po, 80 mg/kg, Cmax)?
**A.** 17800 ng/mL

**Q.** And the MRT inf ([1]; female, SD, po, 80 mg/kg)?
**A.** 5.82 h

**Q.** What about the AUC0-t ([1]; female, SD, po, 240 mg/kg) of the same molecule?
**A.** 790.873 µg·h/mL

**Q.** And the “AUC0-∞” value ([1]; female, SD, po, 240 mg/kg)?
**A.** 840.45 µg·h/mL

**Q.** What about the Cmax ([1]; female, SD, po, 240 mg/kg) of the same molecule?
**A.** 51150 ng/mL

**Q.** What about the “MRT0-∞” value ([1]; female, SD, po, 240 mg/kg) of the same molecule?
**A.** 7.97 h

**Q.** What about the Vd/F ([1]; female, SD, po, 240 mg/kg) of the same molecule?
**A.** 2.87 L/kg

**Q.** And the t1/2 ([1]; female, SD, po, 240 mg/kg)?
**A.** 4.26 h

**Q.** And the tmax ([1]; female, SD, po, 240 mg/kg)?
**A.** 6.0 h

**Q.** What about the AUC0-t ([1]; female, SD, po, 240 mg/kg, AUC0-t) of the same molecule?
**A.** 639 µg·h/mL

**Q.** What about the AUC(0-inf) ([1]; female, SD, po, 240 mg/kg) of the same molecule?
**A.** 690 µg·h/mL

**Q.** What about the Cmax ([1]; female, SD, po, 240 mg/kg, Cmax) of the same molecule?
**A.** 41500 ng/mL

**Q.** And the MRT inf ([1]; female, SD, po, 240 mg/kg)?
**A.** 9.63 h

**Q.** And the half-life ([1]; female, SD, po, 240 mg/kg, t1/2)?
**A.** 344 min

**Q.** And the tmax ([1]; female, SD, po, 240 mg/kg, tmax)?
**A.** 8 h

**Q.** And the AUC0-t ([1]; female, SD, po, 720 mg/kg)?
**A.** 2838.65 µg·h/mL

**Q.** And the Cmax ([1]; female, SD, po, 720 mg/kg)?
**A.** 138000 ng/mL

**Q.** What about the tmax ([1]; female, SD, po, 720 mg/kg) of the same molecule?
**A.** 24.0 h

**Q.** And the AUC0-t ([1]; female, SD, po, 720 mg/kg, AUC0-t)?
**A.** 1550 µg·h/mL

**Q.** And the Cmax ([1]; female, SD, po, 720 mg/kg, Cmax)?
**A.** 69300 ng/mL

**Q.** And the tmax ([1]; female, SD, po, 720 mg/kg, tmax)?
**A.** 16 h

**Q.** What about the “potential toxic target organs” value ([1]; po) of the same molecule?
**A.** marrow hematopoietic system, thymus, heart, liver, lung, spleen, adrenal gland, ovary, and digestion system

**Q.** And the AUC [2, 3]?
**A.** 3410 ± 832 ng·h/mL

**Q.** What about the half-life [2, 3] of the same molecule?
**A.** 276 ± 162 min

**Q.** And the MRT [2, 3]?
**A.** 2.39 ± 0.3 h

**Q.** What about the Vd/F ([2]; female, New Zealand, plasma, oral 30 mg/kg, read-out: Apparent volume of distribution Vz/F) of the same molecule?
**A.** 10.7 ± 3.86 L/kg

**Q.** What about the AUC [2, 4] of the same molecule?
**A.** 19000 ± 2310 ng·h/mL

**Q.** What about the CL/F ([2]; female, New Zealand, plasma, oral 30 mg/kg, read-out: Clearance rate CL/F) of the same molecule?
**A.** 26.6 ± 3.4 mL/min/kg

**Q.** What about the half-life [2, 4] of the same molecule?
**A.** 274 ± 63.6 min

**Q.** And the Cmax ([2]; female, New Zealand, plasma, oral 30 mg/kg, read-out: Plasma concentration Cmax)?
**A.** 5040 ± 776 ng/mL

**Q.** What about the MRT [2, 4] of the same molecule?
**A.** 3.94 ± 0.55 h

**Q.** And the “Apparent volume of distribution Vz/F” value ([2]; intravenous injection 5 mg/kg)?
**A.** 10948 ± 7749 mL/kg

**Q.** What about the “Clearance rate CL/F” value ([2]; intravenous injection 5 mg/kg) of the same molecule?
**A.** 25.3 ± 5.5 mL/min/kg
